Measurements published in patent US12268727B2, “Bioactive polypeptides for improvements in plant protection, growth and productivity” (priority 2017, dated 2025).

Key:
[1] = system: reactive oxygen species (ROS) production in tomato leaf tissue; assay: ROS activity assay in tomato leaf tissue; type: cell-based
Protocol: Tomato leaves were excised from 4-week-old plants using a cork borer to generate 4 mm disks. Each disc was cut in half using the edge of a razor blade, and then each disc half was floated on 150 μL of water in a 96-well plate to rest overnight. The next day, the water was removed from each well just prior to polypeptide treatment. The Flg polypeptides as described in Table 66 were added to water to bring them to a final concentration of 5 nM (Table 67) and 100 nM (Table 68) in solution with luminol and HRP before adding to each treatment well. To maintain activity, the polypeptides were stored in small aliquots to avoid multiple freezing and thawing. All dilutions to obtain working concentrations were done in ultrapure water. Polypeptide solutions were stored at −20° C. for short term usage or −80° C. for long term storage. RLU values and relative ROS activity (Tables 67, 68) is reported as the average of 4 measurements.

Cercospora brassicicola = assay: White leaf spot on kale, disease score and plant weight; type: in vivo
Protocol: The infected kale plants had received no previous foliar treatments for fungal disease prevention. […] A single person scored all the plants within the trial area, and then evenly distributed the plants by disease score between the treatments in Table 64, with 6 replicated blocks of 6 plants per treatment (total=36 plants per treatment). […] Three weeks after foliar treatments, the plants were scored used the same disease severity rubric. The change in disease score was calculated for each plant, and the average change in disease score was determined per treatment. Plants were harvested four days after assessing disease severity, and yield was measured as plant weight (grams). Outlying values with weights that were either 50% below or 50% above the median weight for the trial were excluded from the dataset.

Bt.4Q7Flg22: Flg22 polypeptide (22 amino acids) from flagellin of Bacillus thuringiensis strain 4Q7 (DRLSSGKRINSASDDAAGLAIA; listed as Bacillus thuringiensis)
ROS response ([1]; 5 nM): very low ROS response
ROS response ([1]; 100 nM): high response
Average RLU value (5 nM Flg polypeptide) ([1]; tomato leaf discs, 5 nM, average of 4 measurements): 33118 RLU
Average RLU value with 100 nM Flg polypeptide ([1]; tomato leaf discs, 100 nM (each, in the combination)): 2,118,932 (−) RLU
Average Change in Disease Score (Cercospora brassicicola; improvement on the 1-5 scale, surfactant only control 0.6 point improvement): 1.1 point
average plant weight (Cercospora brassicicola; infected kale, harvested about 3.5 weeks after foliar treatment): 15.1 g
Yield (Average plant weight in grams) (Cercospora brassicicola; infected kale, Bt.4Q7Flg22 100 μM 12.0 Fl. oz/Ac, Liquid Copper Fungicide label rate 54.45 Fl oz/Ac): 15.1 grams
Yield Relative to control (%) (Cercospora brassicicola; infected kale, surfactant only control 100%, Bt.4Q7Flg22 12.0 Fl. oz/Ac, copper fungicide 54.45 Fl oz/Ac): (103%)
average improvement in disease scoring over control (1-5 rubric) (Cercospora brassicicola; three weeks after foliar treatment): 0.5 points
